Measurements from patent publication US6060505A (priority 1999, dated 2000).
Like-named read-outs stand apart in the source and are kept apart here.

What was measured:
[1] = system: protein kinase C; settings: cited from earlier work
[2] = system: [3H]thymidine incorporation; experiment: [3H]thymidine incorporation with or without bisindolyl-maleimide I; type: cell-based; settings: for [3H]thymidine incorporation expressed as percent of control: bryostatin 1 or epi-bryostatin 1 3 uM
Method: (§1) For [^3 H]-thymidine incorporation assays, melanoma cells growing in log phase at a density of 40-50% confluency were treated for one day with the indicated compound.
(§2) Bisindolyl-maleimide I was used to inhibit both PMA and bryostatin 1 induced protein kinase C activity and bryostatin 1 induced inhibition of [^3 H]thymidine incorporation.
The effect of bisindolyl-maleimide I cotreatment on induction of protein kinase C activity and [^3 H]thymidine incorporation in response to PMA or bryostatin 1.

[3] = system: B16/F10 melanoma cell line; experiment: cells; type: cell-based; settings: for cytostatic / cytotoxic effect: 3 uM
Method: The effect of bryostatin 1 and phorbol 12-myristate 13-acetate (PMA) on the proliferation of the B16/F10 melanoma cell line was first determined. Bryostatin 1 inhibited [^3 H]thymidine incorporation with an ED50 of 600±80 nM (n=3) and with a maximum inhibition of 60% (FIG. 2A). […] The effect on cell growth of chronic treatment with bryostatin 1 or PMA was also determined. […] In contrast to bryostatin 1, PMA increased the cell growth by 75±10% (n=3) at a dose of 10 nM; the dose response curve was biphasic, with smaller effects at higher and lower applied doses (FIG. 2B).
During the 4-day treatment schedule, the number of cells in the control group increased 80 to 100-fold.

[4] = system: B16/F10 melanoma cell line; experiment: [3H]thymidine incorporation assay in melanoma cells (one day treatment); type: cell-based; settings: for IC50: read-out: ED50, inhibition of [3H]thymidine incorporation
From the text: FIG. 2A depicts the percentage of incorporation of [^3 H]thymidine relative to a control sample (y-axis) plotted as a function of the concentration (nM) of bryostatin 1 (squares) or 26-epibryostatin 1 (circles)
(§3) The unmodified and C-26 modified bryostatins were used in [^3 H]thymidine incorporation and cell proliferation assays. The phorbol ester PMA, a ligand for protein kinase C was also used in this example to provide a separate control sample. The selection of PMA as a control sample is particularly appealing since bryostatins antagonize a subset of the actions of PMA. [^3 H]Thymidine incorporation is a measure of DNA synthesis, which is often used as a marker of cell replication. Chronic cell growth assays are an alternative measure of cell growth, usually performed over longer periods of time.
as §1

[5] = system: B16-F10 melanoma cell line; experiment: chronic cell growth (cell proliferation) assay, 4 days; type: cell-based; settings: for IC50: read-out: ED50, dose required to reduce cell growth by 50%, 5760 min
From the text: FIG. 2B depicts the results of a chronic cell growth assay wherein the number of cells expressed as a percentage of a control sample (y-axis) are plotted as a function of the concentration (nM) of bryostatin 1 (squares), 26-epibryostatin 1 (circles), or PMA (triangles).
as §3
For the cell proliferation assays, the B16-F10 melanoma cell line with high pulmonary metastatic potency (from the laboratory of Dr. I. J. Fidler, Frederick Cancer Research and Development Center, Frederick, Md.) were plated at a density of 10^3 cells/well in Costar 12-well tissue culture plates. The cells were then treated with different concentrations of bryostatin 1, 26-epi-bryostatin 1, or PMA in 0.1% DMSO 1 and 3 days after plating. Total cell number was determined 4 days after plating.

[6] = system: C57BL/6 mice; experiment: in vivo toxicity in C57BL/6 mice, 7 days observation
Method: C57BL/6 mice were injected with either 500 ug/kg or 1500 ug/kg 26-epi-bryostatin 1 or 150 ug/kg or 500 ug/kg bryostatin 1.

[7] = system: protein kinase C; type: cell-based; settings: for fold increase of protein kinase C activity: PMA 10 nM, bryostatin 1 3 uM, 10 min
Method: as §2
Protein kinase C activity was assayed in cell lysates by measuring the incorporation of ^32 P from [γ-^32 P]ATP into acetylated myelin basic protein peptide (4-14) (Ac-MBP(4-14)) by methods known in the art (Nakadate et al., Biochem. Pharmacol., 37, 1541-1545 (1988)). The cells were treated at 60-75% confluency with bryostatin 1, 26-epi-bryostatin 1 and/or bisindolyl-maleimide I for 10 min. The cells were lysed by sonication in 20 mM Tris-HCl, pH 7.4, containing 5 mM EGTA and 20 uM leupeptin. 5 ul of cell lysate was added to 15 ul kinase buffer (20 mM HEPES, pH 7.5, 10 mM MgCl2, 0.5 mM CaCl2, 1 mM 4-(2-aminoethyl)benzenesulfonyl fluoride, 20 uM leupeptin, and 10 ug/ml aprotinin) containing 50 uM substrate, and 2 uCi [γ-^32 P]ATP at a concentration 50 uM ATP. The kinase reaction was incubated for 10 minutes at 30 ° C. The incorporated radioactivity was measured with a Pharmacia Biotech 1218 liquid scintillation counter.

[8] = system: protein kinase C; settings: cited from earlier work; remark: listed apart in the source
[9] = system: humans; settings: three infusions of 2 μg/kg; cited from earlier work
[10] = system: mice; settings: cited from earlier work
[11] = system: lymphoma, renal cancer, melanoma, leukemia, and ovarian cancer; settings: cited from earlier work
[12] = with BIM-I (1 uM), PMA 10 nM, 1440 min
[13] = without BIM-I, PMA 10 nM, 1440 min

In the case of CCCC=CC=CC(=O)OC1C(=CC(=O)OC)CC2CC(C(C)O)OC(=O)CC(O)CC3CC(OC(C)=O)C(C)(C)C(O)(CC4CC(=CC(=O)OC)CC(C=CC(C)(C)C1(O)O2)O4)O3 (stereo not drawn) [26-epi-bryostatin 1], the “affinity for protein kinase C of 26-epi-bryostatin 1” value ([1]; compared with bryostatin 1) is listed as “significantly reduced affinity”, the “[3H]thymidine incorporation expressed as percent of control” value [2, 12] is listed as 20 ± 5% of control and the “[3H]thymidine incorporation expressed as percent of control” value [2, 13] is listed as 21 ± 3% of control. The “cytostatic / cytotoxic effect” value [3] was “powerful cytostatic agent with no cytotoxic effect”, the “cell death (trypan blue exclusion)” value ([3]; after treatment in the cell growth assay, 5760 min, 3 µM) was “less than 1%” and the “maximum inhibition of [3H]thymidine incorporation” value ([4]; B16/F10 melanoma, highest dose tested 3 uM) was 80±5%. The “inhibitory potency relative to bryostatin 1, [3H]thymidine incorporation” value ([4]; compared with bryostatin 1) was “inhibitory potency similar to that of bryostatin 1”, the “maximum extent of inhibition relative to bryostatin 1, [3H]thymidine incorporation” value ([4]; compared with bryostatin 1) was “greater than for bryostatin 1” and the IC50 ([4]; B16/F10 melanoma, one day, 1440 min) was 600 ± 120 nM. The growth arrest ([5]; 3 uM, 4 days) was “almost complete growth arrest”, the “inhibition of cell growth (maximal, highest dose tested)” value ([5]; 4 days, 3 uM) was 97±3% and the “maximum extent of inhibition relative to bryostatin 1, cell growth” value ([5]; compared with bryostatin 1) was “greater than for bryostatin 1”. For the same molecule, the “reduction in potency relative to bryostatin 1, chronic cell growth assay” value ([5]; compared with bryostatin 1) was 3 fold, the IC50 ([5]; chronic treatment, 4 days) was 140 ± 30 nM and the toxicity ([6]; 500 ug/kg injected) was “only relatively minor toxic effects”. For the same molecule, the toxicity ([6]; 1500 ug/kg injected) was “only relatively minor toxic effects”, the “therapeutic index relative to bryostatin 1” value ([6]; compared with bryostatin 1) was “higher therapeutic index” and the “toxicity relative to bryostatin 1” value ([6]; compared with bryostatin 1) was “significantly less toxic than bryostatin 1”.

With CN(C)CCCn1cc(C2=C(c3c[nH]c4ccccc34)C(=O)NC2=O)c2ccccc21 [BIM-I, bisindolyl-maleimide I] the “effect on PMA-induced increase in [3H]thymidine incorporation” value ([2]; BIM-I 1 uM, PMA 10 nM) was “inhibited the modest PMA-induced increase”, the “effect on bryostatin induced decrease in thymidine incorporation” value ([2]; BIM-I 1 uM, bryostatin 1 3 uM) was “slightly enhanced” and the “effect on inhibition of thymidine incorporation by bryostatin 1” value ([2]; BIM-I 1 uM, bryostatin 1 3 uM) was “did not block”. The “[3H]thymidine incorporation expressed as percent of control” value ([2]; with BIM-I (1 uM), PMA 10 nM) was 91 ± 2% of control, the “inhibition of PMA or bryostatin 1 induced protein kinase C enzymatic activity” value ([7]; BIM-I 1 uM, PMA 10 nM or bryostatin 1 3 uM) was “completely inhibited” and the “protein kinase C inhibition” value [8] was “powerful and specific protein kinase C inhibitor”.

For CCC/C=C/C=C/C(=O)O[C@H]1/C(=C/C(=O)OC)C[C@H]2C[C@H]([C@@H](C)OC(C)=O)OC(=O)C[C@H](O)C[C@@H]3C[C@H](OC(C)=O)C(C)(C)[C@](O)(C[C@@H]4C/C(=C/C(=O)OC)C[C@H](/C=C/C(C)(C)[C@]1(O)O2)O4)O3 [C-26 acetate ester of bryostatin], the “binding activity / affinity for protein kinase C” value [1] is listed as “decreased binding activity”.

For CCCC(=O)O[C@H]1/C(=C/C(=O)OC)C[C@H]2C[C@H]([C@H](C)O)OC(=O)C[C@H](O)C[C@@H]3C[C@H](OC(=O)C(C)(C)C)C(C)(C)[C@](O)(C[C@@H]4C/C(=C/C(=O)OC)C[C@H](/C=C/C(C)(C)[C@]1(O)O2)O4)O3 [C-26 epimer of bryostatin 4], the “binding activity / affinity for protein kinase C” value [1] is listed as “decreased binding activity”.

In the case of CCCCCCCCCCCCCC(=O)O[C@@H]1[C@@H](C)[C@@]2(O)[C@@H](C=C(CO)C[C@]3(O)C(=O)C(C)=C[C@@H]23)[C@@H]2C(C)(C)[C@]12OC(C)=O [PMA, phorbol 12-myristate 13-acetate], the “[3H]thymidine incorporation expressed as percent of control” value ([2]; with BIM-I (1 uM), PMA 10 nM) is reported as 98 ± 11% of control, the “[3H]thymidine incorporation expressed as percent of control” value ([2]; without BIM-I, PMA 10 nM) is reported as 120 ± 22% of control and the activity at 0.01 µM ([4]; Mus musculus, B16-F10, 24 h, 10 nM, read-out: [3H]thymidine incorporation (slight increase)) is reported as 120 ± 20%. The “effect on [3H]thymidine incorporation” value ([4]; dose range between 0.1 nM to 3 uM) was “no significant effect”, the activation at 0.01 µM ([5]; Mus musculus, B16-F10, 96 h, 10 nM, chronic treatment, read-out: increase in cell growth) was 75 ± 10% and the “dose response curve of cell growth” value ([5]; smaller effects at higher and lower applied doses than 10 nM) was “biphasic”. For the same molecule, the “fold increase of protein kinase C activity” value (shortened to “fold increase”) ([7]; with BIM-I (1 uM)) was 1.08 ± 0.1 fold and the “fold increase” value ([7]; without BIM-I) was 4.4 ± 0.1 fold.

For CCCC=CC=CC(=O)OC1C(=CC(=O)OC)CC2CC(C(C)O)OC(=O)CC(O)CC3CC(OC(C)=O)C(C)(C)C(O)(CC4CC(=CC(=O)OC)CC(C=CC(C)(C)C1(O)O2)O4)O3 (centres unmarked) [bryostatin 1], the side-effects [9] is given as “significant side-effects including myalgia and hypotension”, the “inhibition of [3H]thymidine incorporation of bryostatin 1 plus bisindolyl-maleimide I relative to 26-epi-bryostatin 1 alone” value ([2]; combination with BIM-I) is given as “same level of inhibition” and the “[3H]thymidine incorporation expressed as percent of control” value [2, 12] is given as 25 ± 5% of control. The “[3H]thymidine incorporation expressed as percent of control” value [2, 13] was 43 ± 2% of control, the “cytostatic / cytotoxic effect” value [3] was “arrested growth rather than killed cells” and the cytotoxicity at 3 µM ([3]; Mus musculus, B16-F10, 96 h, after treatment in the cell growth assay, read-out: cell death (trypan blue exclusion)) was under 1%. The inhibition at 3 µM ([4]; Mus musculus, B16-F10, 3 h, read-out: maximum inhibition of [3H]thymidine incorporation, B16/F10 melanoma, highest dose tested 3 uM) was 60%, the IC50 ([4]; Mus musculus, B16-F10, 24 h) was 600 ± 80 nM and the “inhibition of cell growth (maximal, highest dose tested)” value ([5]; 4 days, 3 uM) was 75±5%. The IC50 ([5]; chronic treatment, 4 days) was 50 ± 15 nM, the “fold increase” value ([7]; with BIM-I (1 uM)) was 1.07 ± 0.04 fold and the “fold increase” value ([7]; without BIM-I) was 3.02 ± 0.3 fold. For the same molecule, the lethal dose [10] was “greater than 200 μg/kg”, the antineoplastic effectiveness [11] was “directly shown to be effective” and the toxicity ([6]; 150 ug/kg injected) was “only relatively minor toxic effects”. For the same molecule, the “toxicity, lethality” value ([6]; 500 ug/kg bryostatin 1 injected) was “lethal for all animals tested by the third day after injection”.
